{"source": "paper PMC4678810", "about": "(Nucleic Acids Research, 2015)", "key": {"[1]": {"target": "YlTrm9-Trm112 (full-length) (Yarrowia lipolytica, UniProt Q6C999)", "sequence (Q6C999 1-234)": "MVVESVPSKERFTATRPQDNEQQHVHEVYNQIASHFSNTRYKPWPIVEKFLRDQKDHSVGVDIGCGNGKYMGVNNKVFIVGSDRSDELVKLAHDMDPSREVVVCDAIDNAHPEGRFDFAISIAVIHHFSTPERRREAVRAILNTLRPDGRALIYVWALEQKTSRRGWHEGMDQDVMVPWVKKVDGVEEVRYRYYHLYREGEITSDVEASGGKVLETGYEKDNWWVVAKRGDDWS", "sequence (Q6C4P5 1-130 partner)": "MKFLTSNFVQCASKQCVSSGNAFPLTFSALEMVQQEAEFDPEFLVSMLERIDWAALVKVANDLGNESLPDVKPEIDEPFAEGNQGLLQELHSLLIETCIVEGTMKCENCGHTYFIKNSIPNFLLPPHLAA"}, "YlTrm9N38-Trm112": {"target": "YlTrm9N38-Trm112 (Yarrowia lipolytica, UniProt Q6C999)", "sequence (Q6C999 38-234)": "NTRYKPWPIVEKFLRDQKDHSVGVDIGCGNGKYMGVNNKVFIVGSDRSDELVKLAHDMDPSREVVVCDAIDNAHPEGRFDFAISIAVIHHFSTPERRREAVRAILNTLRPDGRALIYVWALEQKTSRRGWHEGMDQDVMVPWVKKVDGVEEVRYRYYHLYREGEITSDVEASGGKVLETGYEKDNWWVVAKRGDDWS", "sequence (Q6C4P5 1-130 partner)": "as the sequence (Q6C4P5 1-130 partner) above"}, "YlTrm9N19-Trm112": {"target": "YlTrm9N19-Trm112 (Yarrowia lipolytica, UniProt Q6C999)", "sequence (Q6C999 19-234)": "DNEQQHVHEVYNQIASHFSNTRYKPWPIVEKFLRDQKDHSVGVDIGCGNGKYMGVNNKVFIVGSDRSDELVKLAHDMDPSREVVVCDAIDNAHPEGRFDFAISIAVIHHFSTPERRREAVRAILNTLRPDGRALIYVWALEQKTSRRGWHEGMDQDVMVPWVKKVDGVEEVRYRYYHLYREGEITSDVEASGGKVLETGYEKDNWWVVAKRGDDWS", "sequence (Q6C4P5 1-130 partner)": "as the sequence (Q6C4P5 1-130 partner) above"}}}
{"smiles": "C[S+](CC[C@H](N)C(=O)O)C[C@H]1O[C@@H](n2cnc3c(N)ncnc32)[C@H](O)[C@@H]1O", "note": "(stereo partly drawn) [SAM]", "values": [{"measurement": "affinity for SAM", "setting": "[1]", "result": "displayed the same affinity for SAM"}, {"measurement": "affinity for SAM", "setting": "YlTrm9N38-Trm112", "result": "displayed the same affinity for SAM"}, {"measurement": "affinity for SAM", "setting": "YlTrm9N19-Trm112", "result": "both truncated forms were strongly affected in their enzymatic activity"}]}
